Values quoted from earlier work in patent US7588907B2, “Ubiquitin mediated fluorescence complementation assay” (The Regents of the University of Michigan, priority 2005, dated 2009).
Residues, ends and D or L forms follow the SMILES beside them. *: point of attachment. Cbz = O=C(OCc1ccccc1)*

System: Jun ubiquitinated by DCX^hDET1-hCOP1
Conditions: cells that overexpressed DCX^hDET1-hCOP1 E3 ligase

CC(C)C[C@@H](C=O)NC(=O)[C@H](CC(C)C)NC(=O)[C@H](CC(C)C)NC(=O)OCc1ccccc1 [MG132] (Cbz-Leu-Leu-Leu-aldehyde)
effect on Jun degradation: inhibited
